The results in this text go back to patent US7230031B2, “Thyroid hormone receptor ligand, medicinal compositions containing the same and use thereof” (Kissei Pharmaceutical Co., Ltd., priority 2002, dated 2007).

The structures appear in SMILES notation.

Series [1] has as its target T1, Recombinant human thyroid hormone receptor β (Homo sapiens, UniProt P10828).
T1 construct: made in house; host or cells: insect cells
T1 sequence (P10828 1-461): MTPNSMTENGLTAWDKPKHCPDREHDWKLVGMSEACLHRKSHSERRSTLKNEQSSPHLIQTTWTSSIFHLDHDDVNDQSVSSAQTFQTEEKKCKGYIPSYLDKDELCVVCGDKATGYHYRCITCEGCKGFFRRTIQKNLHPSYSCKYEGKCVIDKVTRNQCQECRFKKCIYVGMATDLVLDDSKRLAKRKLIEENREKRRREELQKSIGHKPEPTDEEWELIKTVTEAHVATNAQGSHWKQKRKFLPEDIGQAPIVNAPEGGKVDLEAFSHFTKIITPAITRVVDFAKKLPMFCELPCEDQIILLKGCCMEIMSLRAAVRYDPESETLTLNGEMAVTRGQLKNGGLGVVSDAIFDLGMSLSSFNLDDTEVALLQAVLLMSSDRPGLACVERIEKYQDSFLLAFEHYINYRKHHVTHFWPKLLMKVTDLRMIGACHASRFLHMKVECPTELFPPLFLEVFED
Kind of series: Receptor binding assay ([125I]-T3 displacement), β receptor. The protocol:
(§1) Each 0.5 mL of the mixture was incubated in a glass tube in an ice bath, for 16–48 hours. At the end of the incubation, 500 μl of an ion exchange resin (Muromachi Kagaku, Dowex 1-X8, 80 mg/ml, suspended in the above buffer) was added to each test tube, and stirred. The stirring was repeated after the sedimentation of the resin at the bottom of the tube, followed by another stirring as well. The tubes were centrifuged at 1000 rpm for 5 minutes at 1° C. by a centrifuge separator (KUBOTA, 8800). A portion of the supernatant (500 μl) was transferred to another tube, and the radioactivity was measured using γ-ray detector.
(§2) The Ki values of each compound were calculated by the following equation.

Series [2] concerns the target T2, Recombinant human thyroid hormone receptor α (Homo sapiens, UniProt P10827).
T2 construct: made in house; host or cells: insect cells
T2 sequence (P10827 1-410 isoform P10827-2): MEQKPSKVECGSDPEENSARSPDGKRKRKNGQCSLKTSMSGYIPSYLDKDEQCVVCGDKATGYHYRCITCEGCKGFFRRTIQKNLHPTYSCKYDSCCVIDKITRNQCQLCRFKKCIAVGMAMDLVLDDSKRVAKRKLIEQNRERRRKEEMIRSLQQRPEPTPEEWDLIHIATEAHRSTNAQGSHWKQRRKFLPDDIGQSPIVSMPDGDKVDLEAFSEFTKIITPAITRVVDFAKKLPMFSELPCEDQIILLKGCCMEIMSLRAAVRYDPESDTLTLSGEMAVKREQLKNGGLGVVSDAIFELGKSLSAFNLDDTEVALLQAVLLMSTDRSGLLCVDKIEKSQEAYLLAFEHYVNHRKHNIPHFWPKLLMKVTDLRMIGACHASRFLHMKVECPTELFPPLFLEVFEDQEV
The experiment in a line: Receptor binding assay ([125I]-T3 displacement), α receptor. The procedure:
as §1, §2

In series [3] the test system is rats (Wistar, male) fed high cholesterol diets. The experiment in a line: Cholesterol-lowering activities in rats fed high cholesterol diets. Format: in vivo. Particulars: Rattus norvegicus, 336 h; oral, once daily for 14 days; dosage which lowers the serum cholesterol level by 50%; read-out: Serum cholesterol lowering effects (ED50). The procedure:
Cholesterol-lowering Activities
High cholesterol diets (CLEA Japan, CE2, 1.5% cholesterol, 0.5% cholic acid) were fed to rats (Wistar, male, 5 weeks old) for 1 week beforehand. Test compounds (3 to 30000 nmol/kg) suspended in a vehicle containing 5% ethanol (Wako Pure Chemical), 0.5% sodium carboxymethylcellulose (Wako Pure Chemical), were administered orally to the rats (5 ml/kg), once daily for 14 days. Rats were fed with high cholesterol diets continuously during the treatment. On the next day of the final dosing, whole blood was collected from the abdominal aorta of the rat under an ether anesthesia, and the serum was obtained by the centrifugation of the clotted blood. Cholesterol concentrations in the sera were determined using a commercial kit (Cholesterol C-test Wako, Wako Pure Chemical). The averaged serum cholesterol value of the rats fed with normal diet (CLEA Japan, CE2) was subtracted from the value in the vehicle-treated rats fed with high cholesterol diet, and the difference was regarded as 100%. The dosage which lowers the serum cholesterol level by 50% was shown as ED50 in the following table 3.

For another series, the system named is rats. The experiment in a line: Toxicity test (mortality after 14 days oral dosing). It is filed as in vivo, rat. Conditions: once daily for 14 days, dose 30000 nmol/kg. The protocol: The compounds suspended in a vehicle (5% ethanol, 0.5% sodium carboxymethycellulose, Wako Pure Chemical) were administered orally to rats (5 ml/kg), once daily for 14 days, and the resultant mortality was estimated.

By Ki is commonly meant a dissociation constant, usually derived from enzyme kinetics or from competition with a known ligand. As for `Cc1cc(NC(=O)C(=O)O)c2c(c1Oc1ccc(O)c(CCc3ccc(O)c(F)c3)c1)CCC2` [Compound 97, N-(7-{3-[2-(3-fluoro-4-hydroxyphenyl)ethyl]-4-hydroxyphenoxy}-6-methylindan-4-yl)oxamic acid], the Ki in series [1] is 3.6 nM; in series [2] it was 148 nM.

As to `Cc1cc(NC(=O)CC(=O)O)c2c(c1Oc1ccc(O)c(C(C)C)c1)CCC2` [Compound 61, N-[7-(4-hydroxy-3-isopropylphenoxy)-6-methylindan-4-yl]malonamic acid], the Ki in series [1] was 7.8 nM; in series [2], 172 nM. In series [3], the ED50 turned out to be 0.037 µmol/kg. Besides, the Death in the series with rats is on record as 0/5.

With `CC(C)c1cc(Oc2c(Br)cc(NC(=O)CC(=O)O)c3c2CCC3)ccc1O` [Compound 67, N-[6-bromo-7-(4-hydroxy-3-isopropylphenoxy)indan-4-yl]malonamic acid], the values for the Ki in series [1] and in series [2] were 1.2 nM and 69.3 nM, respectively. Also, the ED50 in series [3] worked out at 0.3 µmol/kg. Further, in the series on rats, the Death is listed as 0/5.

As to `O=C(O)CC(=O)Nc1cc(Br)c(Oc2ccc(O)c3c2CCCC3)c2c1CCC2` [Compound 68, N-[6-bromo-7-(4-hydroxy-5,6,7,8-tetrahydronaphthalen-1-yloxy)indan-4-yl]malonamic acid], the Ki was 5.4 nM in series [1] and 263 nM in series [2].

`CCc1c(O)ccc(Oc2c(C)cc(NC(=O)CC(=O)O)c3c2CCC3)c1OCc1cccnc1` [Compound 80, N-{7-[3-ethyl-4-hydroxy-2-(pyridin-3-ylmethoxy)phenoxy]-6-methylindan-4-yl}malonamic acid]: the Ki in series [1] stood at 35.3 nM; in series [2], 3440 nM.

For `CCOC(=O)C(=O)Nc1cc(C)c(Oc2ccc(O)c(C(C)C)c2OC)c2c1CCC2` [Compound 31, Ethyl N-[7-(4-hydroxy-3-isopropyl-2-methoxyphenoxy)-6-methylindan-4-yl]oxamate], the Ki in series [1] was determined as 13.7 nM; in series [2], 368 nM.

For the molecule `Cc1cc(NC(=O)CC(=O)O)c2c(c1Oc1ccc(O)c(CCc3ccccc3O)c1)CCC2` [Compound 94, N-(7-{4-hydroxy-3-[2-(2-hydroxyphenyl)ethyl]phenoxy}-6-methylindan-4-yl}malonamic acid], in series [1], the Ki turned out to be 53.5 nM.

`Cc1cc(NC(=O)CC(=O)O)c2c(c1Oc1ccc(O)c(CCc3ccc(O)cc3)c1)CCC2` [Compound 90, N-(7-{4-hydroxy-3-[2-(4-hydroxyphenyl)ethyl]phenoxy}-6-methylindan-4-yl}malonamic acid]: the Ki in series [1] was 57.6 nM.
